Assay results as given in PubChem BioAssay (NCI).
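Results reflect a 48-hour exposure of cells in 96-well plates to compound at five concentrations. GI50 is the concentration that inhibits growth by half. TGI is the concentration that stops growth completely.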

What follows are molecules tested on NCI-H522 lung (assay: NCI tumour cell line growth inhibition, 48 h).

Which TGI does the source give for `COc1cc2c(cc1O)CC[n+]1cc3c(OC)c(OC)ccc3cc1-2` here?
Its TGI is > 100 µM.

Which TGI does the source give for `CC[P+](C#Cc1ccccc1)(c1ccccc1)c1ccccc1` here?
The TGI was 3.32 µM.

`Cc1ccc(C(=O)c2[nH]c(Nc3cc(C)ccn3)c(C(=S)Nc3ccccc3)c2N)cc1` was tested. Which TGI did it give?
The TGI was > 100 µM.

`CC(C)Cc1c(C#N)c(C#N)c(N)n1Cc1ccccc1` was tested. Which TGI did it give?
Its TGI is > 100 µM.

How did the TGI turn out when `NS(=O)(=O)c1nnc(NSc2ccc([N+](=O)[O-])cc2)s1` was run?
The TGI was 44.3 µM.

For `Nc1nc(Nc2ccc(OCc3cccc(F)c3)cc2)c2c(n1)[nH]c1ccc(O)cc12`, which GI50 is on record?
The GI50 was 1.99 µM.

And the TGI?
The TGI was 4.67 µM.

`CC1=NC(C)(C)N(O)C1(C)C` was tested. Which TGI did it give?
Its TGI is > 100 µM.

Which TGI does the source give for `O=c1oc2ccccc2c2nc3ccccc3cc12` here?
Its TGI is > 100 µM.

For `Clc1cccc(C2ON=C(c3ccccc3)N2C23CC4CC(CC(C4)C2)C3)c1Cl` (configuration not stated), which TGI is on record?
The TGI was > 10 µM.

For `CCN(CC(=O)O)CC(=O)O`, which TGI is on record?
The TGI was > 100 µM.

Which TGI does the source give for `Cc1cc(C)nc(NS(=O)(=O)c2ccc(Nc3c4ccccc4nc4c(C(=O)NCCO)cccc34)cc2)n1` here?
The TGI was 30 µM.

Which TGI does the source give for `CC(C)(C)c1ccc2c(c1)OCc1n[nH]c(n1)COc1cc(C(C)(C)C)ccc1OCCOCCO2` here?
Its TGI is 9.07 µM.

How did the TGI turn out when `COC1OC2COC(C)(C)OC2C2OC(C)(C)OC12` (configuration not stated) was run?
Its TGI is > 100 µM.

For `CCNC(=S)N/N=C/c1ccccn1`, which TGI is on record?
Its TGI is > 100 µM.

For `COc1ccc(CCCCl)c(C2=NCCc3ccccc32)c1`, which TGI is on record?
Its TGI is > 100 µM.

With `O=C1NN=C(c2c[nH]c3ccccc23)CC1NCc1ccccc1` (configuration not stated) as the molecule, how does the TGI read?
Its TGI is > 100 µM.

How did the TGI turn out when `O=C(CN=C(CN(c1ccccc1)c1ccccc1)Oc1c(Cl)cc(Cl)cc1Cl)n1cnc2ccccc21` was run?
The TGI was > 100 µM.

With `C=C1CC=CC(C)(C)C1C/C=C(\C)C(O)CBr` (configuration not stated) as the molecule, how does the TGI read?
The TGI was 23.2 µM.

With `O=C(NCCCNCCCCNCCCNC(=O)C(F)(F)F)C(F)(F)F` as the molecule, how does the TGI read?
The TGI was > 100 µM.

Which TGI does the source give for `O=C(O)c1cc2ccccc2c(S(=O)(=O)O)c1O` here?
The TGI was > 100 µM.

Which TGI does the source give for `CCOC(=O)c1[nH]c2nc(SC)nc(NC)c2c1N` here?
The TGI was > 100 µM.

With `Cc1cccc(NC(Nc2cccc(C)c2)=C(C(Cl)=C(Cl)Cl)[N+](=O)[O-])c1` as the molecule, how does the TGI read?
Its TGI is 21 µM.

`C/C(=N\Nc1nc2ccccc2s1)c1cccnn1` was tested. Which TGI did it give?
The TGI was 17.7 µM.

For `FC(F)=C(c1ccc(-c2ccc(Cl)cc2)cc1)C(F)(F)F`, which TGI is on record?
Its TGI is 36.6 µM.

For `Nc1n[nH]c2ccccc12`, which TGI is on record?
Its TGI is > 100 µM.

How did the TGI turn out when `COC(=O)[C@H]1C=C[C@H](OC2OC(COC(C)=O)C(OC(C)=O)C(OC(C)=O)C2OC(C)=O)n2c(=O)n(-c3ccccc3)c(=O)n21` (some centres not stated) was run?
Its TGI is 0.504 µM.

These molecules were tested on UACC-62 melanoma (assay: NCI tumour cell line growth inhibition, 48 h).

For `COc1cc2c(cc1O)CC[n+]1cc3c(OC)c(OC)ccc3cc1-2`, which TGI is on record?
The TGI was > 100 µM.

`CC[P+](C#Cc1ccccc1)(c1ccccc1)c1ccccc1` was tested. Which TGI did it give?
Its TGI is 3.45 µM.

With `Cc1ccc(C(=O)c2[nH]c(Nc3cc(C)ccn3)c(C(=S)Nc3ccccc3)c2N)cc1` as the molecule, how does the TGI read?
Its TGI is > 100 µM.

`CC(C)Cc1c(C#N)c(C#N)c(N)n1Cc1ccccc1` was tested. Which TGI did it give?
The TGI was > 100 µM.

For `NS(=O)(=O)c1nnc(NSc2ccc([N+](=O)[O-])cc2)s1`, which TGI is on record?
Its TGI is > 100 µM.

How did the GI50 turn out when `Nc1nc(Nc2ccc(OCc3cccc(F)c3)cc2)c2c(n1)[nH]c1ccc(O)cc12` was run?
Its GI50 is 1.95 µM.

What about the TGI of the same molecule?
The TGI was 4.09 µM.

For `CC1=NC(C)(C)N(O)C1(C)C`, which TGI is on record?
The TGI was > 100 µM.

Which TGI does the source give for `O=c1oc2ccccc2c2nc3ccccc3cc12` here?
The TGI was > 100 µM.

For `Clc1cccc(C2ON=C(c3ccccc3)N2C23CC4CC(CC(C4)C2)C3)c1Cl` (configuration not stated), which TGI is on record?
Its TGI is > 10 µM.

For `CCN(CC(=O)O)CC(=O)O`, which TGI is on record?
The TGI was > 100 µM.

`Cc1cc(C)nc(NS(=O)(=O)c2ccc(Nc3c4ccccc4nc4c(C(=O)NCCO)cccc34)cc2)n1` was tested. Which TGI did it give?
Its TGI is > 100 µM.

`CC(C)(C)c1ccc2c(c1)OCc1n[nH]c(n1)COc1cc(C(C)(C)C)ccc1OCCOCCO2` was tested. Which TGI did it give?
The TGI was 10.4 µM.

With `COC1OC2COC(C)(C)OC2C2OC(C)(C)OC12` (configuration not stated) as the molecule, how does the TGI read?
The TGI was > 100 µM.

Which TGI does the source give for `CCNC(=S)N/N=C/c1ccccn1` here?
Its TGI is 26.1 µM.

`COc1ccc(CCCCl)c(C2=NCCc3ccccc32)c1` was tested. Which TGI did it give?
The TGI was > 100 µM.

`O=C1NN=C(c2c[nH]c3ccccc23)CC1NCc1ccccc1` (configuration not stated) was tested. Which TGI did it give?
The TGI was > 100 µM.

Which TGI does the source give for `O=C(CN=C(CN(c1ccccc1)c1ccccc1)Oc1c(Cl)cc(Cl)cc1Cl)n1cnc2ccccc21` here?
The TGI was > 100 µM.

For `C=C1CC=CC(C)(C)C1C/C=C(\C)C(O)CBr` (configuration not stated), which TGI is on record?
The TGI was > 100 µM.

With `O=C(NCCCNCCCCNCCCNC(=O)C(F)(F)F)C(F)(F)F` as the molecule, how does the TGI read?
Its TGI is > 100 µM.

With `O=C(O)c1cc2ccccc2c(S(=O)(=O)O)c1O` as the molecule, how does the TGI read?
The TGI was > 100 µM.

`CCOC(=O)c1[nH]c2nc(SC)nc(NC)c2c1N` was tested. Which TGI did it give?
Its TGI is > 100 µM.

Which TGI does the source give for `Cc1cccc(NC(Nc2cccc(C)c2)=C(C(Cl)=C(Cl)Cl)[N+](=O)[O-])c1` here?
Its TGI is 40.6 µM.

For `C/C(=N\Nc1nc2ccccc2s1)c1cccnn1`, which TGI is on record?
The TGI was 20 µM.

For `FC(F)=C(c1ccc(-c2ccc(Cl)cc2)cc1)C(F)(F)F`, which TGI is on record?
The TGI was 38.6 µM.

How did the TGI turn out when `Nc1n[nH]c2ccccc12` was run?
Its TGI is > 100 µM.

Which TGI does the source give for `COC(=O)[C@H]1C=C[C@H](OC2OC(COC(C)=O)C(OC(C)=O)C(OC(C)=O)C2OC(C)=O)n2c(=O)n(-c3ccccc3)c(=O)n21` (some centres not stated) here?
The TGI was 3.01 µM.

Each molecule was assayed on SK-MEL-5 melanoma (assay: NCI tumour cell line growth inhibition, 48 h).

With `COc1cc2c(cc1O)CC[n+]1cc3c(OC)c(OC)ccc3cc1-2` as the molecule, how does the TGI read?
Its TGI is > 100 µM.

Which TGI does the source give for `CC[P+](C#Cc1ccccc1)(c1ccccc1)c1ccccc1` here?
Its TGI is 2.84 µM.

Which TGI does the source give for `Cc1ccc(C(=O)c2[nH]c(Nc3cc(C)ccn3)c(C(=S)Nc3ccccc3)c2N)cc1` here?
Its TGI is > 100 µM.

Which TGI does the source give for `CC(C)Cc1c(C#N)c(C#N)c(N)n1Cc1ccccc1` here?
The TGI was > 100 µM.

With `NS(=O)(=O)c1nnc(NSc2ccc([N+](=O)[O-])cc2)s1` as the molecule, how does the TGI read?
Its TGI is > 100 µM.

Which GI50 does the source give for `Nc1nc(Nc2ccc(OCc3cccc(F)c3)cc2)c2c(n1)[nH]c1ccc(O)cc12` here?
The GI50 was 4.17 µM.

What about the TGI of the same molecule?
The TGI was 15.2 µM.

How did the TGI turn out when `CC1=NC(C)(C)N(O)C1(C)C` was run?
The TGI was > 100 µM.

For `O=c1oc2ccccc2c2nc3ccccc3cc12`, which TGI is on record?
The TGI was > 100 µM.

How did the TGI turn out when `Clc1cccc(C2ON=C(c3ccccc3)N2C23CC4CC(CC(C4)C2)C3)c1Cl` (configuration not stated) was run?
The TGI was > 10 µM.

Which TGI does the source give for `CCN(CC(=O)O)CC(=O)O` here?
Its TGI is > 100 µM.

`Cc1cc(C)nc(NS(=O)(=O)c2ccc(Nc3c4ccccc4nc4c(C(=O)NCCO)cccc34)cc2)n1` was tested. Which TGI did it give?
Its TGI is 36.6 µM.

`CC(C)(C)c1ccc2c(c1)OCc1n[nH]c(n1)COc1cc(C(C)(C)C)ccc1OCCOCCO2` was tested. Which TGI did it give?
Its TGI is 4.68 µM.
